# Results taken from patent US8609712B2, “Purification of progesterone receptor modulators” (Wyeth LLC, priority 0205, dated 2013).
# How the values were obtained:
# [1] = Solubility of the isolated salt in NMP / DMPU; assay type: physicochemical
# Experimental: 6-Bromo-4,4-dimethyl-benzoxazine-2-one (2.59 g) was dissolved in THF (50 mL) at ambient temperature followed by addition of sodium tert-butoxide (0.96 g). The mixture was gently heated until a solution was obtained.
# Similarly, 6-bromo-4,4-dimethyl-benzoxazine-2-one (2.55 g) was reacted with lithium tert-butoxide (10 mL of 1M solution in THF).
# physchem = conditions: organic solvent or mixture
# Solubility in DMF = conditions: solvent DMF
compound,measurement,setting,value
"CC1(C)OC(=O)Nc2ccc(Br)cc21.[Na] [6-Bromo-4,4-Dimethyl-Benzoxazine-2-One Sodium Salt]",solubility in N-methylpyrrolidone (NMP) and dimethylpyrimidone (DMPU),[1]; solvents heated to about 40 to about 50° C.,soluble
"Cn1c(C#N)ccc1-c1ccc2c(c1)C1(CCCCC1)C(=NC#N)N2 [5′-(5-Cyano-1-methyl-1H-pyrrol-2-yl)spiro[cyclohexane-1,3′-[3H]indol]-2′-ylidenecyanamide]",solubility,physchem,3000 µg/mL
"CC1(C)OC(=O)Nc2ccc(Br)cc21.[Li] [6-Bromo-4,4-Dimethyl-Benzoxazine-2-One Lithium Salt]",solubility in dimethylpyrimidone (DMPU),[1]; without heating,soluble
"5′-(5-cyano-1-methyl-1H-pyrrol-2-yl)spiro[cyclohexane-1,3′-[3H]indol]-2′-ylidenecyanamide choline salt",solubility in DMF,Solubility in DMF,11000 µg/mL
